Experimental data as given in patent publication US20080139668A1, “PHARMACEUTICAL COMPOSITION FOR OBOVATOL FOR THE PREVENTION AND TREATMENT OF RESTENOSIS” (Korea Research Institute of Bioscience and Biotechnology, priority 2006, published 2008).

Legend:
[1] = tested on: arterial smooth muscle cells; test: Cell cycle of arterial smooth muscle cells; assay type: cell-based
[2] = tested on: arterial smooth muscle cells; test: Inhibition of PDGF-induced arterial smooth muscle cell proliferation (cell count); assay type: cell-based, rat; conditions: obovatol 1, 3, 5 μM; 50 ng/ml PDGF-BB; 24, 48, 72 hours; FIG. 9
Description: Obovatol was examined for inhibitory activity against the proliferation of arterial smooth muscle cells in rats. Arterial smooth muscle cells were plated at a density of 3.0×10^4 cells/well onto 12-well plates containing a DMEM medium supplemented with 0.5% (V/V) fetal bovine serum, and incubated for 24 hours After the addition of obovatol (1, 3, and 5 μM) to the plates, the cells were incubated for 24 hours. Treatment with 50 ng/ml of platelet-derived growth factor (PDGF-BB, Sigma Chem. Co., USA) was followed by incubation for 24, 48, and 72 hours. Thereafter, the cells were trypsinized and counted using a cell counter.

[3] = tested on: arterial smooth muscle cells; test: Inhibition of DNA synthesis ([3H] thymidine) in PDGF-treated arterial smooth muscle cells; assay type: cell-based, rat; conditions: obovatol 1, 3, 5 μM, FIG. 10
Description: Arterial smooth muscle cells were cultured in the same manner as in Example 4, with the exception that the cells were cultured for 20 hours after treatment with platelet-derived growth factor, and then cultured for 4 hours in the presence of 1 μl of [3H] thymidine. The cultured cells were washed with PBS and incubated with 500 μl of TCA (trichloroacetic acid) for 30 min. After the removal of TCA, the cells were washed with a mixture of 1:1 ethanol:ether (v/v) and disrupted with 500 μl of NaOH. The cell lysate was mixed with 5 ml of a scintillation cocktail and measured for radioactivity to analyze relative amounts of newly synthesized DNA. FIG. 10 is a graph in which amounts of newly synthesized DNA in PDGF-treated arterial smooth muscle cells are plotted against concentrations of obovatol.

ICR mice = test: Acute toxicity assay in mice; assay type: in vivo, mouse; conditions: abdominal injection 1000, 100, 10 mg/kg
Description: (§1) ICR mice (weighing 25±5 g) and SPF Sprague-Dawley rats (weighing 235±10 g) were separately divided into four groups of three and abdominally injected with the obovatol prepared in Example 2 at doses of 1000 mg/kg, 100 mg/kg, and 10 mg/kg and monitored for toxicity over 24 hours.

SPF Sprague-Dawley rats = test: Acute toxicity assay in rats; assay type: in vivo, rat; conditions: abdominal injection 1000, 100, 10 mg/kg
Description: as §1

injured carotid artery [4] = tested on: injured carotid artery
Description: For the topical application of obovatol in vivo, pluronic gel was employed. F-127 pluronic gel (Sigma Chemical Company, Germany) was dissolved in cold, deionized water to give 40% gel one day before the experiment, and was allowed to stand at 4° C. for 12 hours to dissolve powdered F-127 pluronic gel completely. On the day of the experiment, obovatol was dissolved in a concentration of 10 μg/μL in 100% ethanol and 10 μL of the obovatol solution (10 μg/μL) was mixed with 90 μL of the 40% F-127 pluronic gel to afford 100 μL of obovatol-pluronic gel, comprising 100 μg of obovatol. A control was prepared in the same manner except that no obovatol was contained therein.
After rats were anaesthetized by abdominal injection with ketamine (50 mg/kg) and xylazine (6.7 mg/kg) and incised to expose the common carotid artery, the external carotid artery and the internal carotid artery were exteriorized through a ventral right line neck incision. While blood flow was temporarily halted by occluding the artery with microvascular clamps (Acland, S&T, Switzerland) at the proximal region of the common carotid artery and the distal region of the internal carotid artery, arteriotomy was performed on the external carotid artery. A 2F Fogarty arterial embolectomy catheter (Baxter Healthcare Corporation, USA) was inserted into the lumen of the right common carotid artery through the incised region and the balloon was inflated to a size larger than the diameter of the common carotid artery so as to generate slight arterial wall resistance. The catheter was advanced a predetermined distance and then withdrawn. This procedure was repeated a total of three times to induce endothelial denudation, after which the catheter (the balloon?) was removed from the arterial lumen. Then, the microvascular clamps were removed to allow blood to flow through the artery. Secretions and blood were completely removed from the exterior of the carotid artery before the obovatol-pluronic gel or the obovatol-lacking pluronic gel were topically applied in an amount of 100 μL to upper loci of the carotid artery, followed by ligation of the artery with a suture. Two weeks after the arteriotomy, a carotid artery angiography was conducted and a carotid artery sample was taken and analyzed histopathologically.

injured carotid artery [5] = test: Carotid artery angiography in the rat carotid artery balloon injury model; assay type: in vivo; conditions: 100 μg obovatol in 100 μL pluronic gel, topical to injured carotid artery; 14 days after arteriotomy; mean±S.E.; control 0.63±0.12; p<0.01
Description: A 4F vascular cannula (Cook, USA) was inserted into the ventral aorta and the catheter was advanced toward the head to a locus as close as possible to a branch between the common carotid arteryand the transverse aorta. After the injection of a contrast media (Visipaque™, Amersham Health, Cork, Ireland), mean luminal diameters (MLD) were measured using computerized coronary angiography (DCI Videodensitometry, Phillips, Netherlands)(See FIG. 1˜FIG. 8).
They were measured for the inner diameter of the carotid artery using a 5F coronary catheter, and the mean value thereof was used as a control.

[6] = 100 μg obovatol in pluronic gel, topical, two weeks after injury, control 0.18 ± 0.06, P < 0.05

**Q.** Which results are given for obovatol?
**A.** proportion of cells in resting state (G0/G1) of the cell cycle [1]: increased the proportion of cells in a resting state (G0/G1); growth of arterial smooth muscle cells (cell count) [2]: inhibitory of the growth of arterial smooth muscle cells; DNA synthesis ([3H] thymidine incorporation) [3]: decreases with the increasing concentration of obovatol; abnormality (body weight, food intake, etc.) (ICR mice; 24 hours): no abnormality observed in any of the animals; death (ICR mice; monitored 24 hours): Death was observed in none of the four groups; abnormality (body weight, food intake, etc.) (SPF Sprague-Dawley rats; 24 hours): no abnormality observed in any of the animals; death (SPF Sprague-Dawley rats; monitored 24 hours): Death was observed in none of the four groups; Medial Area (mm^2) (injured carotid artery [4]; 100 μg obovatol in pluronic gel, topical, two weeks after injury, control 0.12 ± 0.02, P > 0.05): 0.11 ± 0.10 mm^2; Intimal Area (mm^2) (injured carotid artery [4]; [6]): 0.13 ± 0.03 mm^2; Intimal Thickness (mm) (injured carotid artery [4]; [6]): 0.23 ± 0.02 mm; Intimal-Medial Area Ratio (injured carotid artery [4]; 100 μg obovatol in pluronic gel, topical, two weeks after injury, control 1.54 ± 0.48, P < 0.05): 1.12 ± 0.23; Stenosis (%) (injured carotid artery [4]; 100 μg obovatol in pluronic gel, topical, two weeks after injury, control 50.10 ± 13.25, P < 0.01): 34.94 ± 7.23%; cytotoxicity inferred from similar medial thickness to control (injured carotid artery [4]; rat, in vivo): no cytotoxicity; inner diameter of carotid artery (mean luminal diameter) (injured carotid artery [5]): 0.78±0.06 mm
